The record followed here is patent publication US20030095958A1, “Inhibitors of bace” (priority 2001, published 2003).

SMILES strings stand for the structures.

Sequence of BACE (P56817 46-501): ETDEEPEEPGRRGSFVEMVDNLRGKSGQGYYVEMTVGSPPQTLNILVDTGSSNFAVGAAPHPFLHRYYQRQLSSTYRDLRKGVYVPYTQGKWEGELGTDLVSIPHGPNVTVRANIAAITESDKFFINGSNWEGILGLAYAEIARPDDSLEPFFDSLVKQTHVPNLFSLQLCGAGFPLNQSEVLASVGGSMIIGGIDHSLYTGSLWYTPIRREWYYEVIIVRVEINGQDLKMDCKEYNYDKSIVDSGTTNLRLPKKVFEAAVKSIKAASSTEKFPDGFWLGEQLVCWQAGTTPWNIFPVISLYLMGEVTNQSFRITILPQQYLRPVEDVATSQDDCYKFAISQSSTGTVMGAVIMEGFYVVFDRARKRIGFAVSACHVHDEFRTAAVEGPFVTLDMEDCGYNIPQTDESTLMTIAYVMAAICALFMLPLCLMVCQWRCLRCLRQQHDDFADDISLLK

This experiment has as its target BACE (Homo sapiens, UniProt P56817). The experiment in a line: Ki Determination for the Inhibition of BACE (FS-1 peptide fluorescence cleavage assay). The experiment is classed as biochemical. The conditions noted are these: apparent Ki; 50 nM BACE, 10 μM FS-1 substrate, 0.1M sodium acetate pH 4.5. The essentials: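 Human BACE (50 nM) was preincubated 15 min at room temperature with compound (2% DMSO) in 0.1 M sodium acetate pH 4.5, then 10 μM FS-1 peptide was added. Cleavage was followed by fluorescence (ex 355/em 495 nm), and apparent Ki came from fitting to the integrated competitive tight-binding inhibition equation.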
For the compound `Cc1c(COc2ccc3c(c2)c2c(n3C(=O)c3cccc4ccccc34)CNCC2)cccc1C(F)(F)F` [Compound 523, [6-(2-Methyl-3-trifluoromethyl-benzyloxy)-1,2,3,4-tetrahydro-b-carbolin-9-yl]-naphthalen-1-yl-methanone], the Ki was below 3 µM.
In the case of `Cc1c(COc2ccc3c(c2)c2c(n3C(=O)c3ccc4ccccc4c3)CNCC2)cccc1C(F)(F)F` [Compound 524, [6-(2-Methyl-3-trifluoromethyl-benzyloxy)-1,2,3,4-tetrahydro-b-carbolin-9-yl]-naphthalen-2-yl-methanone], the Ki is below 3 µM.
In the case of `COc1cc(COc2ccc3c(c2)c2c(n3Cc3cccc4ccccc34)CNCC2)cc(OC)c1` [Compound 525, 6-(3,5-Dimethoxy-benzyloxy)-9-naphthalen-1-ylmethyl-2,3,4,9-tetrahydro-1H-b-carboline] it was below 3 µM; in that of `COc1cc(COc2ccc3c(c2)c2c(n3C(=O)c3cccc4ccccc34)CNCC2)cc(OC)c1` [Compound 526, [6-(3,5-Dimethoxy-benzyloxy)-1,2,3,4-tetrahydro-b-carbolin-9-yl]-naphthalen-1-yl-methanone], below 3 µM; in that of `COc1cc(COc2ccc3c(c2)c2c(n3C(=O)c3ccc4ccccc4c3)CNCC2)cc(OC)c1` [Compound 527, [6-(3,5-Dimethoxy-benzyloxy)-1,2,3,4-tetrahydro-b-carbolin-9-yl]-naphthalen-2-yl-methanone], below 3 µM.
The figure for `O=C(c1cccc2ccccc12)n1c2c(c3cc(OCc4ccccc4I)ccc31)CCNC2` [Compound 528, [6-(2-Iodo-benzyloxy)-1,2,3,4-tetrahydro-b-carbolin-9-yl]-naphthalen-1-yl-methanone] is below 3 µM; for `O=C(c1cccc2ccccc12)n1c2c(c3cc(OCc4ccccc4OC(F)F)ccc31)CCNC2` [Compound 529, [6-(2-Difluoromethoxy-benzyloxy)-1,2,3,4-tetrahydro-b-carbolin-9-yl]-naphthalen-1-yl-methanone] it is below 3 µM.
Turning to `O=C(c1ccc2ccccc2c1)n1c2c(c3cc(OCc4ccccc4OC(F)F)ccc31)CCNC2` [Compound 530, [6-(2-Difluoromethoxy-benzyloxy)-1,2,3,4-tetrahydro-b-carbolin-9-yl]-naphthalen-2-yl-methanone], the Ki was below 3 µM.
In the case of `N#Cc1ccccc1-c1ccc(COc2ccc3c(c2)c2c(n3Cc3ccc4ccccc4c3)CNCC2)cc1` [Compound 531, 4′-(9-Naphthalen-2-ylmethyl-2,3,4,9-tetrahydro-1H-b-carbolin-6-yloxymethyl)-biphenyl-2-carbonitrile] it was below 3 µM; in that of `N#Cc1ccccc1-c1ccc(COc2ccc3c(c2)c2c(n3C(=O)c3cccc4ccccc34)CNCC2)cc1` [Compound 532, 4′-[9-(Naphthalene-1-carbonyl)-2,3,4,9-tetrahydro-1H-b-carbolin-6-yloxymethyl]-biphenyl-2-carbonitrile], below 3 µM; in that of `FC(F)(F)c1ccc(COc2ccc3c(c2)c2c(n3Cc3cccc4ccccc34)CNCC2)cc1` [Compound 533, 9-Naphthalen-1-ylmethyl-6-(4-trifluoromethyl-benzyloxy)-2,3,4,9-tetrahydro-1H-b-carboline], below 3 µM.
The figure for `FC(F)(F)c1ccc(COc2ccc3c(c2)c2c(n3Cc3ccc4ccccc4c3)CNCC2)cc1` [Compound 534, 9-Naphthalen-2-ylmethyl-6-(4-trifluoromethyl-benzyloxy)-2,3,4,9-tetrahydro-1H-b-carboline] is below 3 µM; for `FC(F)(F)c1ccccc1COc1ccc2c(c1)c1c(n2Cc2ccc3ccccc3c2)CNCC1` [Compound 535, 9-Naphthalen-2-ylmethyl-6-(2-trifluoromethyl-benzyloxy)-2,3,4,9-tetrahydro-1H-b-carboline] it is below 3 µM; for `O=C(c1ccc2ccccc2c1)n1c2c(c3cc(OCc4ccc(C(F)(F)F)cc4)ccc31)CCNC2` [Compound 536, Naphthalen-2-yl-[6-(4-trifluoromethyl-benzyloxy)-1,2,3,4-tetrahydro-b-carbolin-9-yl]-methanone] it is below 3 µM.
In the case of `FC(F)(F)c1cccc(COc2ccc3c(c2)c2c(n3Cc3ccc4ccccc4c3)CNCC2)c1` [Compound 537, 9-Naphthalen-2-ylmethyl-6-(3-trifluoromethyl-benzyloxy)-2,3,4,9-tetrahydro-1H-b-carboline] it was below 3 µM.
